The values below come from paper PMC10735184, “Attractant and repellent induce opposing changes in the four-helix bundle ligand-binding domain of a bacterial chemoreceptor” (PLOS Biology, 2023).

Assay [1] concerns the target T1, MCP2201 (Comamonas thiooxydans, UniProt A0ABF7PFR0).
T1 construct: gene CtCNB1_2201; MCP2201-LBD (residues 58–203), N-terminal His6-tag
T1 sequence (A0ABF7PFR0 58-203): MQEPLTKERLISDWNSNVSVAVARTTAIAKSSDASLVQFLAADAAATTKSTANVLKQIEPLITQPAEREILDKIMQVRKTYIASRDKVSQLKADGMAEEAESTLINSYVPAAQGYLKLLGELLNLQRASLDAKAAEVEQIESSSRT
The assay can be described thus: ITC; crystal structure at […] Å; analytical ultracentrifugation. It is filed as binding. For orientation: ITC needs no label: the signal is the heat of the interaction.

Assay [2] has as its target T2, MCP2201 (Comamonas thiooxydans, UniProt A0ABF7PFR0, T108A).
T2 construct: gene CtCNB1_2201; MCP2201-LBD (residues 58–203), isolated periplasmic domain
The assay can be described thus: ITC. The assay is classed as binding.

In general, Kd refers to the free concentration of one partner at which half of the binding sites on the other are occupied at equilibrium, for simple one-to-one binding. Read a high Kd as lower affinity.

Consider `O=C(O)C[C@H](O)C(=O)O` [L-malate], for which the values for the Kd in assay [1] and in assay [2] were 18.8 ± 7.45 µM and 995 ± 438 µM, respectively.
